From ChEMBL document CHEMBL1129718, “Morphan based substance P antagonists” (Bioorg Med Chem Lett, 1996) come the findings set out here.

pKi: −log10 of the molar value. A value given as a limit tells only on which side of the number the result lay.

The experiment addresses Substance-P receptor (Homo sapiens, UniProt P25103). The experiment in a line: Compound was evaluated for binding affinity towards neurokinin NK1 receptor.

Chain of Substance-P receptor (P25103 whole entry): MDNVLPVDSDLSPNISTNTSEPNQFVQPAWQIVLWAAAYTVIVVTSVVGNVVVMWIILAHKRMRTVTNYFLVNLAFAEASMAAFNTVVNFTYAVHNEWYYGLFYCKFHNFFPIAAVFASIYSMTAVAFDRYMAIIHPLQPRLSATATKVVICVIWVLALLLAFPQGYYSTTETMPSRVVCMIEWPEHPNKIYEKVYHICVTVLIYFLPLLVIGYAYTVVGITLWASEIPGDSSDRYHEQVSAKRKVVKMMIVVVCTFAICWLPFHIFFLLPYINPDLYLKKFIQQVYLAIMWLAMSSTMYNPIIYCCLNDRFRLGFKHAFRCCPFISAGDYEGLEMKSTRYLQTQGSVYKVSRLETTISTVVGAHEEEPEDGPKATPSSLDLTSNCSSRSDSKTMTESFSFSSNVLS

Regarding `COc1ccccc1CN[C@H]1C2CCNC1(c1ccccc1)CC=C2C` (some centres not stated), the pKi was 9.20. In turn, `COc1ccccc1CN[C@@H]1C2CCNC1(c1ccccc1)CC=C2C` (some centres not stated) showed a pKi of less than 5.50.

What is called pKi is −log10 of the Ki, conventionally taken in molar units.
